Laboratory results: patent publication US8318447B2, “Use of bitter taste receptor to screen for compounds that offset the bitter taste of chlorogenic lactone containing coffee compositions” (Senomyx Inc., priority 2005, dated 2012)

How the values were obtained:
Format in all cases: cell-based
[1] = biological target: T1, hT2R14 (Homo sapiens, UniProt Q9NYV8); experiment: calcium imaging of HEK293 cells transfected with hT2R14 and chimeric G protein G16gust44; conditions: for response of HEK-293 cells that express hT2R14: 2 mM concentrations, FIG. 3; for response of hT2R14 (increase in intracellular calcium concentration): different concentrations, FIG. 2
T1 construct: expressed in transfected cells; host or cells: human embryonic kidney (HEK293) cells, transient transfection
T1 sequence (Q9NYV8 1-317): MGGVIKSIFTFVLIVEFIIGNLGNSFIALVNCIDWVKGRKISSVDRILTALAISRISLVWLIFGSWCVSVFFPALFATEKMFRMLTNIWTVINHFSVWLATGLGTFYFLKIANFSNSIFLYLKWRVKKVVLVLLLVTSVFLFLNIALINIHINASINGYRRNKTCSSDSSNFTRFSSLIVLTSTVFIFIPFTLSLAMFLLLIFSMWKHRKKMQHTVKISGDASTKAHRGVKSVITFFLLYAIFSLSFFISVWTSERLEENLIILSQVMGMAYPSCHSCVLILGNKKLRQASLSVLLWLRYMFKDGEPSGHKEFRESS
Description: (§1) More particularly, the present inventors transfected HEK293 cells with a particular hT2R together with a chimeric G protein (G 16gust44) which comprises the Gα16 G protein sequence modified by the replacement of carboxy-44 amino acid residues with those of gustducin, and recorded responses of these cells to specific bitter ligands by calcium imaging methods.
(§2) Activation of these receptors by 3CoQAL is measured in a cell-based assay detecting changes in intracellular calcium concentration. In brief, human embryonic kidney cells are seeded in 48-well tissue culture plates. 24 hours later, the cells are transiently transfected with plasmid containing either the hT2R8, hT2R14 or hT2R54 nucleic acid sequence, and plasmid containing a chimeric G protein (G16gust44). Another 24 hours later, the cells are incubated with a fluorescent dye specific for calcium (Fluo-4 or Fura-2; Molecular Probes) that provides a fast, simple and reliable fluorescence-based method for detecting changes in calcium concentration inside the cell. Activation of the T2Rs elicits a signaling cascade leading to the activation of PLC and a subsequent increase in intracellular calcium concentration. This increase in calcium concentration changes the fluorescence properties of the calcium dye inside the cells. These changes are monitored using fluorescence microscopy and a specific design software (Imaging Workbench, Axon).
as §2, with “this receptor” for “these receptors”, “3CQAL and 4CQAL” for “3CoQAL”
as §2, with “this receptor” for “these receptors”, “4FQAL” for “3CoQAL”, “brief” for “brief,”

[2] = biological target: T2, hT2R8 (Homo sapiens, UniProt Q9NYW2); experiment: calcium imaging of HEK293 cells transfected with hT2R8 and chimeric G protein G16gust44; conditions: for response of HEK-293 cells that express hT2R8: 2 mM concentrations, FIG. 3; for response of hT2R8 (increase in intracellular calcium concentration): different concentrations, FIG. 2 / FIG. 4
T2 construct: expressed in transfected cells; host or cells: human embryonic kidney (HEK293) cells, transient transfection
T2 sequence (Q9NYW2 1-309): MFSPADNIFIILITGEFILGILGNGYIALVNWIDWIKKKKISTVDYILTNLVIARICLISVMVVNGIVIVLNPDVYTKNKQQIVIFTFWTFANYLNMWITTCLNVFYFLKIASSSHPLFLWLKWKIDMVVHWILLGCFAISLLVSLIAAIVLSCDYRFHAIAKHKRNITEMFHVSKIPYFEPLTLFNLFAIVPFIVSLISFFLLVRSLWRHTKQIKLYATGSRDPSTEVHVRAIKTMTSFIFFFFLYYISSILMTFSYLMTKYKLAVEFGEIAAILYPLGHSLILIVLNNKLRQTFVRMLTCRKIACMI
Description: as §1, §2
as §2, with “this receptor” for “these receptors”, “3CQAL and 4CQAL” for “3CoQAL”
as §2, with “this receptor” for “these receptors”, “4FQAL” for “3CoQAL”, “brief” for “brief,”

[3] = biological target: T3, hT2R54 (Homo sapiens, UniProt P59534); experiment: calcium imaging of HEK293 cells transfected with hT2R54 and chimeric G protein G16gust44; conditions: for response of HEK-293 cells that express hT2R54: 2 mM concentrations, FIG. 3; for response of hT2R54 (increase in intracellular calcium concentration): different concentrations, FIG. 2 / FIG. 4
T3 construct: expressed in transfected cells; host or cells: human embryonic kidney (HEK293) cells, transient transfection
T3 sequence (P59534 18-338): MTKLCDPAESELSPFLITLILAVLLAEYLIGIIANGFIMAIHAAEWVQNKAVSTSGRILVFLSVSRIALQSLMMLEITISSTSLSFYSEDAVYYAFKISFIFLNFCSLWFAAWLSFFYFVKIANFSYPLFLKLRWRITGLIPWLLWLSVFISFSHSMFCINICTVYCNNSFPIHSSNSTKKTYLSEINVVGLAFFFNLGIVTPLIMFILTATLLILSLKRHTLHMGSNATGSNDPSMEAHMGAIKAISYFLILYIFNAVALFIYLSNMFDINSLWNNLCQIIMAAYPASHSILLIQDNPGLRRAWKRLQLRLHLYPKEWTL
Description: as §1, §2
as §2, with “this receptor” for “these receptors”, “3CQAL and 4CQAL” for “3CoQAL”
as §2, with “this receptor” for “these receptors”, “4FQAL” for “3CoQAL”, “brief” for “brief,”

Row | SMILES | response of HEK-293 cells that express hT2R14 [1] | response of HEK-293 cells that express hT2R8 [2] | response of HEK-293 cells that express hT2R54 [3] | response of hT2R14 (increase in intracellular calcium concentration) [1] | response of hT2R8 (increase in intracellular calcium concentration) [2] | response of hT2R54 (increase in intracellular calcium concentration) [3]
1 | O=C(/C=C/c1ccc(O)c(O)c1)O[C@@H]1C[C@]2(O)C[C@@H](OC2=O)[C@@H]1O [3CQAL] | specifically respond | specifically respond | specifically respond |  |  | 
2 | O=C(C=Cc1ccc(O)cc1)OC1CC2(O)CC(OC2=O)C1O (stereo not drawn) [3CoQAL] |  |  |  | responded | responded | responded
3 | O=C(C=Cc1ccc(O)c(O)c1)OC1C(O)CC2(O)CC1OC2=O (stereo not drawn) [4CQAL] | specifically respond | specifically respond | specifically respond |  |  | 
4 | COc1cc(/C=C/C(=O)O[C@@H]2[C@H](O)C[C@]3(O)C[C@H]2OC3=O)ccc1O [4FQAL] |  |  |  | specifically activate | responded specifically | responded specifically
5 | OC[C@H]1O[C@@](CO)(O[C@H]2O[C@H](CO)[C@@H](O)[C@H](O)[C@H]2O)[C@@H](O)[C@@H]1O [sucrose] | do not respond | do not respond | do not respond | do not respond | do not respond | do not respond
